Results published in patent US20060035862A1, “Tolerance of 4-(4-(2-pyrrolycarbonyl)-1-piperazinyl)-3-trifluoromethyl-benzoylguanidine in intravenous administration” (Boehringer Ingelheim Pharma KG, priority 2001, published 2006).
Structures can show the parent of a compound that is named as a salt.

Legend:
citrated human blood = experiment: in vitro haemolysis test (solution mixed 1:1 with citrated human blood, 37° C.); format: cell-based
Description: In the following description the term “active substance”, on its own or in combination, always denotes 4-(4-(2-pyrrolylcarbonyl)-1-piperazinyl)-3-trifluoromethyl-benzoylguanidine hydrochloride, unless otherwise stated. Both a monohydrate and a hemihydrate of 4-(4-(2-pyrrolylcarbonyl)-1-piperazinyl)-3-trifluoromethyl-benzoylguanidine hydrochloride may be obtained. For all the experiments the hemihydrate was used. The quantitative data used hereinafter always relate to the free base; i.e. the quantities specified correspond to the theoretical amount of free base, whereas in reality a correspondingly larger amount of hemihydrate was added. In each case glucose was used to render the solution isotonic. The isotonic nature of the solutions was checked in each case by lowering the freezing point. In in-vitro haemolysis tests in each case the solution to be tested was mixed with citrated human blood in the ratio 1:1 and kept at 37° C. during the incubation period. […]

[1] = local tolerance trial on rats (30 minutes' infusion into the caudal vein); format: in vivo
[2] = local tolerance study on rabbits (bolus and 8 minutes infusion); format: in vivo
[3] = local tolerance in dogs (bolus and infusion); format: in vivo
Method: In the second step the appropriate ratio of HPβCD to active substance was determined from the local tolerance in dogs.

[4] = local tolerance after intravenous administration; format: in vivo
Method: When they are administered parenterally some local intolerances occasionally arise.

[5] = stability of the active substance (hydrolysis); format: physicochemical; conditions: only anhydrous formulations are stable
Description: Therefore, lyophilisates have been developed, which have to be reconstituted before use.

N=C(N)NC(=O)c1ccc(N2CCN(C(=O)c3ccc[nH]3)CC2)c(C(F)(F)F)c1 [active substance, 4-(4-(2-pyrrolylcarbonyl)-1-piperazinyl)-3-trifluoromethyl-benzoylguanidine hydrochloride]
degree of haemolysis (citrated human blood; 10 mg/ml active substance, 100 mg/ml PVP 17 PF, aqueous isotonic solution, incubation 45 minutes): 17%
haemolysis observed (citrated human blood; 1% aqueous isotonic active substance solution containing 10% HPβCD, incubation 45 minutes): no haemolysis
degree of haemolysis (%) (citrated human blood; active substance 0.5 mg/ml, aqueous isotonic solution, no tolerance measures, incubation two hours): 0%
degree of haemolysis (%) (citrated human blood; active substance 1.0 mg/ml, aqueous isotonic solution, no tolerance measures, incubation two hours): 1%
degree of haemolysis (%) (citrated human blood; active substance 1.5 mg/ml, aqueous isotonic solution, no tolerance measures, incubation two hours): 4%
degree of haemolysis (%) (citrated human blood; active substance 1.5 mg/ml, no tolerance measures, incubation 45 minutes): 0%
degree of haemolysis (%) (citrated human blood; active substance 10 mg/ml, HPβCD 0 mg/ml, incubation 45 minutes): 100%
degree of haemolysis (%) (citrated human blood; active substance 10 mg/ml, HPβCD 100 mg/ml, incubation 45 minutes): 0%
degree of haemolysis (%) (citrated human blood; active substance 10 mg/ml, Poloxamer 188 0 mg/ml, incubation 45 minutes): 99%
degree of haemolysis (%) (citrated human blood; active substance 10 mg/ml, Poloxamer 188 100 mg/ml, incubation 45 minutes): 4%
degree of haemolysis (%) (citrated human blood; active substance 10 mg/ml, Poloxamer 188 200 mg/ml, incubation 45 minutes): 0%
degree of haemolysis (%) (citrated human blood; active substance 10.0 mg/ml, no tolerance measures, incubation 45 minutes): 100%
degree of haemolysis (%) (citrated human blood; active substance 10 mg/ml, phospholipid 60 mg/ml, sodium glycocholate 32 mg/ml): 2%
degree of haemolysis (%) (citrated human blood; active substance 10 mg/ml, phospholipid 60 mg/ml, sodium glycocholate 36 mg/ml): 7%
degree of haemolysis (%) (citrated human blood; active substance 10 mg/ml, phospholipid 75 mg/ml, sodium cholate 50 mg/ml, incubation 45 minutes): 7%
degree of haemolysis (%) (citrated human blood; active substance 10 mg/ml, phospholipid 150 mg/ml, sodium cholate 100 mg/ml, incubation 45 minutes): 0%
haemolytic activity (citrated human blood; ratio of HPβCD to active substance 6.67:1, active substance concentration 9 mg/ml): not haemolytic
local tolerance ([1]; 0.75 mg/ml, no tolerance measures, 30 minutes' infusion into the caudal vein): poorly tolerated
local tolerance ([1]; 1.5 mg/ml with 100 mg/ml Poloxamer 188, 30 minutes infusion into the caudal vein, compared with 1.5 mg/ml without excipient): better tolerated
local tolerance ([2]; 1% active substance solutions containing 10% HPβCD): locally well-tolerated
local tolerance ([2]; 1% active substance solutions with phospholipid and sodium cholate (mixed micelles)): locally well-tolerated
local tolerance ([3]; weight ratio HPβCD to active substance 10:1, bolus, active substance concentration 10 mg/ml): suitable
local tolerance ([3]; weight ratio HPβCD to active substance 10:1, infusion, active substance concentration between 1.5 mg/ml and 3 mg/ml): suitable
local tolerance [4]: locally poorly tolerated
stability [5]: prone to hydrolysis
